Measured values as given in US20120022261A1, “Colorant Compositions Containing an Oxonol Dye” (priority 2005, published 2012).

How the values were obtained:
[1] = Solubility in organic solvents (EtOH, MEK); assay type: physicochemical; conditions: for Solubility (g/l) EtOH: solvent EtOH; for Solubility (g/l) MEK: solvent MEK (methylethyl ketone)
[2] = 50° C. test (storage at 50° C. over 18 hours in a hot-air cabinet); assay type: physicochemical; design: key: A positive test result indicates that the product still exists in a solid and powdery state after the heat treatment; If the product undergoes a sintering process and/or starts to melt at this temperature, the test result is classified as negative; conditions: solid product stored at 50° C. for 18 hours in a hot-air cabinet
Method: The 50° C. test involves storing the product to be tested at 50° C. over a period of 18 hours in a hot-air cabinet. […] If the product undergoes a sintering process and/or starts to melt at this temperature, the test result is classified as negative.

Row | SMILES | Solubility (g/l) EtOH [1] | Solubility (g/l) MEK [1] | 50° C. Test [2]
1 | CCCCCN1C(=O)C(=CC=Cc2c(C)c(C#N)c(=O)n(CCCCC)c2[O-])C(C)=C(C#N)C1=O.CCCC[N+](CCCC)(CCCC)CCCC [n-pentyl, n-pentyl, tetrabutyl-ammonium] | 50 g/L | 380 g/L | positive
2 | CCCC[N+](CCCC)(CCCC)CCCC.CCCCn1c([O-])c(C=CC=C2C(=O)N(CC)C(=O)C(C#N)=C2C)c(C)c(C#N)c1=O [ethyl, n-butyl, tetrabutyl-ammonium] | 14.3 g/L | 41.4 g/L | positive
3 | CCCCC[N+](CCCCC)(CCCCC)CCCCC.CCn1c([O-])c(C=CC=C2C(=O)N(CCCOC(C)C)C(=O)C(C#N)=C2C)c(C)c(C#N)c1=O [reference compound] | 45 g/L | 32 g/L | negative
4 | CCCC[N+](CCCC)(CCCC)CCCC.CCN1C(=O)C(=CC=Cc2c(C)c(C#N)c(=O)n(CC)c2[O-])C(C)=C(C#N)C1=O [ethyl, ethyl, tetrabutyl-ammonium] | 5.6 g/L | 63.2 g/L | positive
5 | CC1=C(C#N)C(=O)N(CC(C)C)C(=O)C1=CC=Cc1c(C)c(C#N)c(=O)n(CC(C)C)c1[O-].CCCC[N+](CCCC)(CCCC)CCCC | 4 g/L | 56.2 g/L | positive
6 | CCCC[N+](CCCC)(CCCC)CCCC.COCCN1C(=O)C(=CC=Cc2c(C)c(C#N)c(=O)n(CCOC)c2[O-])C(C)=C(C#N)C1=O [reference compound] |  |  | negative
7 | CCCC[N+](CCCC)(CCCC)CCCC.CCCN1C(=O)C(=CC=Cc2c(C)c(C#N)c(=O)n(CCC)c2[O-])C(C)=C(C#N)C1=O [n-propyl, n-propyl, tetrabutyl-ammonium] | 14 g/L | 69 g/L | positive
8 | CCCC[N+](CCCC)(CCCC)CCCC.CCn1c([O-])c(C=CC=C2C(=O)N(CCCOC(C)C)C(=O)C(C#N)=C2C)c(C)c(C#N)c1=O [reference compound] | 146 g/L | 231 g/L | negative
9 | CC1=C(C#N)C(=O)N(C(C)C)C(=O)C1=CC=Cc1c(C)c(C#N)c(=O)n(C(C)C)c1[O-].CCCC[N+](CCCC)(CCCC)CCCC [i-propyl, i-propyl, tetrabutyl-ammonium] |  |  | positive
10 | CCCCN1C(=O)C(=CC=Cc2c(C)c(C#N)c(=O)n(CCCC)c2[O-])C(C)=C(C#N)C1=O.CCCC[N+](CCCC)(CCCC)CCCC [n-butyl, n-butyl, tetrabutyl-ammonium] | 35.5 g/L | 98 g/L | positive
11 | CC1=C(C#N)C(=O)N(CCCOC(C)C)C(=O)C1=CC=Cc1c(C)c(C#N)c(=O)n(C)c1[O-].CCCC[N+](CCCC)(CCCC)CCCC [reference compound] | 21.3 g/L | 28.5 g/L | negative
12 | CCCC[N+](CCCC)(CCCC)CCCC.CCCCn1c([O-])c(C=CC=C2C(=O)N(CCCOC(C)C)C(=O)C(C#N)=C2C)c(C)c(C#N)c1=O [reference compound] | 197 g/L | 339 g/L | negative
